The test system of data set [1] is mice without acute pancreatitis. Nature of the data set: Control groups: mice given galanin or galanin antagonist alone (saline, no caerulein). Particulars: mice without AP.
The next data set has as its target T1, GALR2 (Homo sapiens, UniProt O43603).
T1 sequence (O43603 1-387): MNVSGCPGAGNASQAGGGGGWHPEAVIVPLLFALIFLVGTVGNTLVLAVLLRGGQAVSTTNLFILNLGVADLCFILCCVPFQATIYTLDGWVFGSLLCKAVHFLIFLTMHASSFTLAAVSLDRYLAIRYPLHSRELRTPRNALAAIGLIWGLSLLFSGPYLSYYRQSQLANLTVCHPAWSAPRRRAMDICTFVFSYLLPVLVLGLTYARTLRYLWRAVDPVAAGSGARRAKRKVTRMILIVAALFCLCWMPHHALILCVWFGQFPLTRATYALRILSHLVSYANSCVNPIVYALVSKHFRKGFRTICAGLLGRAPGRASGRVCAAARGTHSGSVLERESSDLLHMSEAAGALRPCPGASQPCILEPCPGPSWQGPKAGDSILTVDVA
Particulars: GALR2 vs GALR1; cited from earlier work.

Data set [2] concerns caerulein-induced acute pancreatitis (AP) in mice. Nature of the data set: Caerulein-induced acute pancreatitis in mice (mild model, 7 hourly i.p. injections) with galanin or galanin antagonists. The class given is in vivo, mouse (female Balb C or Swiss). Particulars: mouse caerulein AP.
Setting [3] is: 20 nmol/kg i.p. with each caerulein injection, reduction of AP-induced level.
Setting [4] is: 40 nmol/kg i.p. with each caerulein injection, vs AP alone.
Where [5] appears, read: dose not given (20 and 40 nmol/kg tested).
The mark [6] stands for this setting: dose not given (20 and 40 nmol/kg tested), decrease of AP-induced level.
Setting [7] is: 40 nmol/kg i.p. with each caerulein injection, reduction of AP-induced level.

Entries after “also recorded” stand apart in the source; their conditions may differ. Square brackets hold non-standard residues; d marks the D form. Ends that are not written are not given here. Peptide text beside a SMILES is read from it.

With `CC(C)C[C@H](NC(=O)[C@H](CC(C)C)NC(=O)[C@@H](Cc1c[nH]c2ccccc12)NC(=O)[C@H](Cc1ccccc1)NC(=O)[C@@H](Cc1c[nH]c2ccccc12)NC(=O)[C@H](CCC(N)=O)NC(=O)[C@H](CCC(N)=O)NC(=O)[C@@H]1CCCN1C(=O)[C@H](CCCCN)NC(=O)[C@@H]1CCCN1C(=O)[C@@H](CCCNC(=N)N)NC(=O)[C@@H]1CCCN1C(=O)CNC(=O)[C@H](CC(C)C)NC(=O)[C@H](CC(C)C)NC(=O)[C@H](Cc1ccc(O)cc1)NC(=O)CNC(=O)[C@H](C)NC(=O)[C@H](CO)NC(=O)[C@H](CC(N)=O)NC(=O)[C@H](CC(C)C)NC(=O)[C@@H](NC(=O)[C@H](Cc1c[nH]c2ccccc12)NC(=O)CN)[C@@H](C)O)C(N)=O` [C7, Galanin(1-13)-spantide amide] (H-GWTLNSAGYLLGP[dR]PKPQQ[dW]F[dW]LL-NH2), the “pancreatic myeloperoxidase (MPO) activity” value (“pancreatic myeloperoxidase” for short) in data set [1] (40 nmol/kg alone) is given as “produced an increase in pancreatic MPO activity; also recorded: significantly elevated pancreatic MPO activity”.

Consider `CC(C)C[C@H](NC(=O)CNC(=O)[C@H](CC(N)=O)NC(=O)[C@H](CCCCN)NC(=O)[C@H](CC(=O)O)NC(=O)[C@H](CO)NC(=O)[C@H](Cc1ccccc1)NC(=O)[C@H](CO)NC(=O)[C@H](CCCNC(=N)N)NC(=O)[C@H](Cc1cnc[nH]1)NC(=O)[C@H](CC(N)=O)NC(=O)CNC(=O)[C@@H](NC(=O)[C@H](C)NC(=O)[C@H](Cc1cnc[nH]1)NC(=O)[C@@H]1CCCN1C(=O)CNC(=O)[C@H](CC(C)C)NC(=O)[C@H](CC(C)C)NC(=O)[C@H](Cc1ccc(O)cc1)NC(=O)CNC(=O)[C@H](C)NC(=O)[C@H](CO)NC(=O)[C@H](CC(N)=O)NC(=O)[C@H](CC(C)C)NC(=O)[C@@H](NC(=O)[C@H](Cc1c[nH]c2ccccc12)NC(=O)CN)[C@@H](C)O)C(C)C)C(=O)N[C@H](C(=O)N[C@@H](CO)C(=O)O)[C@@H](C)O` [Galanin], for which, in data set [1] (10 nmol/kg alone, vs baseline), the plasma amylase activity entry is reported as “did not increase plasma amylase activity above baseline activity” and the plasma lipase activity result is given as “did not increase plasma lipase activity above baseline activity”. The “pancreatic myeloperoxidase” value in data set [1] (10 nmol/kg alone, vs saline control) is reported as “did not significantly increase pancreatic MPO activity above that measured in saline control”.

Turning to “Galanin 2-29: galanin fragment 2-29 (WTLNSAGYLLGPHAVGNHRSFSDKNGLT; ends and bridges not checked; UniProt P22466 34-61, looked up, fragment)”, in the data set with GALR2, the “affinity for GALR2 relative to GALR1” value is on record as “higher affinity than GALR1”.

In the case of “Galanin(1-13)-Pro-Pro-Ala-Leu-Ala-Leu-Ala amide (GWTLNSAGYLLGPPPALALA-NH2) [M40]”, the entries for the “pancreatic acinar cell vacuolization score” value in data set [2] (20 nmol/kg), in data set [2] (40 nmol/kg) and in data set [2] (setting [5]) were “significantly reduced”, “significantly reduced” and “did”, respectively. For the same compound, the figures for the “pancreatic myeloperoxidase” value in data set [2] (setting [3]), in data set [2] (setting [4]) and in data set [2] (setting [6]) were “significantly reduced”, “significantly reduced” and “decreased”, respectively. In addition, the pancreatitis-induced plasma hyperenzymemia entry in data set [2] (co-treatment, 20 and 40 nmol/kg tested) is reported as “failure to reduce the pancreatitis-induced plasma hyperenzymemia”. Moreover, the “pancreatic acinar cell necrosis score” value in data set [2] (setting [5]) is “without effect”.

Take “M35: GWTLNSAGYLLGPPPGFSPFR (SEQ ID NO: 15); amino terminal portion of galanin linked to bradykinin”: the “pancreatic myeloperoxidase” value in data set [2] (setting [3]) is listed as “significantly reduced”; in data set [2] (setting [4]), “significantly reduced”; in data set [2] (setting [6]), “decreased”. The “pancreatic acinar cell necrosis score” value in data set [2] (40 nmol/kg (high dose), histology scoring system) is on record as “reduced the necrosis score; also recorded: significantly reduced”. The plasma amylase activity entry in data set [2] (setting [7]) is on record as “depressed; also recorded: significantly reduced”. In addition, the plasma lipase activity result in data set [2] (setting [7]) is reported as “significantly reduced”. In addition, the “pancreatic acinar cell vacuolization score” value in data set [2] (setting [5]) was “failed to improve the acute pancreatitic-induced vacuolization; also recorded: without effect”.

(Values after US8318657B2, “Methods and compositions for preventing and/or treating pancreatitis” (Flinders Technologies Pty Ltd., priority 2005, dated 2012).)
